Experimental data as given in patent US10596151B2, “Methods and pharmaceutical compositions for reducing arterial stiffness with a combination of a therapeutic agent blocking the angiotensin receptor and a therapeutic agent inhibiting the NEP enzyme” (Novartis AG, priority 2015, dated 2020).
Values joined by “and” are separate entries in the source; they are usually repeats but may differ in a detail not shown here. Equal entries are not always repeated. Marks after values point to notes of the source that are not given here.

How the values were obtained:
[1] = system: elderly patients (≥60 years) with essential hypertension; experiment: […] study: central aortic pressures (CASP, CPP/CAPP, central DBP, central MAP) by SphygmoCor X-CEL; assay type: in vivo, human
Description: The term CAPP refers to central aortic PP. In the context of the present invention CAPP is measured with the SphygmoCor X-CEL System (AtCor Medical, Sydney, Australia) to non-invasively derive the ascending aortic pressure waveform from the brachial waveform using a validated generalised transfer function (GTF). A properly sized BP cuff is linked to a computer and software and the CASP, CAPP, augmentation pressure, and Alx are determined from the analysis of waveform by the system software. […]
The primary and secondary endpoints are changes from baseline in central aortic systolic pressure (CASP) and central aortic PP (CAPP) at week 12, respectively. Other secondary endpoints are the changes in CASP and CAPP at week 52. […] The primary variable will be analysed using a two-way analysis of covariance.
The SphygmoCor X-CEL System (AtCor Medical, Sydney, Australia) is being used to non-invasively derive the ascending aortic pressure waveform from the brachial waveform using a validated generalised transfer function (GTF).22 A properly sized BP cuff is linked to a computer and software and the CASP, CAPP, augmentation pressure, and Alx are determined from the analysis of waveform by the system software.
A sample size of 183 completers per group is targeted, which is calculated based on the primary efficacy variable, change from baseline in mean CASP at 12 weeks, assuming a standard deviation of 19 mm Hg. […] Assuming a 15% dropout rate, the total targeted sample size to be randomised is 432 patients (216 per group). The primary variable at the Week 12 endpoint will be analysed using a two-way analysis of covariance (ANCOVA), with treatment and region as factors and the baseline as a covariate. Mean CAPP at the Week 12 endpoint will be analysed using the same type of ANCOVA model used for the primary efficacy analysis. A two-sided significance at 0.05 level will be used for this analysis and a 95% confidence interval for the treatment difference will be provided.

[2] = system: elderly patients (≥60 years) with essential hypertension; experiment: […] study: mean sitting (brachial) blood pressure and pulse pressure; assay type: in vivo, human
From the text: (§1) The study enrolled patient from 5 Dec. 2012 to 8 Apr. 2015.
Superiority testing is also planned for the key secondary efficacy assessment, i.e. the reduction in mean central aortic PP (CAPP) after 12 weeks of treatment, and other secondary efficacy assessments such as mean CASP and CAPP after 52 weeks of treatment. Mean aPWV, msSBP, msDBP, msPP, mean ambulatory (ma) BP, maPP, and MAP will also be measured after 12 and 52 weeks of treatment.

[3] = system: elderly patients (≥60 years) with essential hypertension; experiment: […] study: 24-hour ambulatory brachial and central blood pressure (Mobil-O-Graph); assay type: in vivo, human
From the text: as §1
The 24-hour maCAP and maPWA will be monitored using the oscillometric device, Mobil-0-Graph (IEM, Stolberg, Germany) with integrated ARC solver algorithms (Austrian Institute of Technology, Vienna, Austria). The traditional Mobil-O-Graph ambulatory blood pressure monitoring (ABPM) device has been available for more than a decade and through several product generations.24-27 The actual blood pressure measuring unit was validated according to the British Hypertension Society (BHS) and the European Society of Hypertension (ESH) recommendations.24,26 The method equipped with a GTF to derive aortic pressure waveforms28 is based on brachial readings acquired in the course of the conventional pressure measurement at diastolic level.
During the signal acquisition procedure, the received raw signals are separated into single waves and checked for their plausibility by means of extreme values and corresponding wavelengths using a cross-correlation approach. Poor waveforms are removed from further processing. After applying the GTF to each single waveform, the procedure is repeated.
With respect to legal issues, the Mobil-O-Graph maPWA monitor with integrated ARC solver algorithms holds approvals from CE, FDA, and JPAL (amongst others).

[4] = system: elderly patients (≥60 years) with essential hypertension; experiment: PARAMETER study: safety and tolerability assessments; details: 52-week study
From the text: The inclusion criteria in the study was designed to enroll patients which met the profile of elderly patients with systolic hypertension and a wide pulse pressure, a characteristic reflective of large artery (aortic) stiffness. […] The study enrolled patient from 5 Dec. 2012 to 8 Apr. 2015.
This was a 52-week study, involving 50 centers from 12 countries (across Europe, South America, Asia and the United States). […] After 12 weeks, patients with uncontrolled BP (msSBP>140 mmHg and/or mean sitting diastolic blood pressure [msDBP]>90 mmHg) were allowed the use of add-on antihypertensives (amlodipine [2.5-5.0 mg] and then hydrochlorothiazide [6.25-25.0 mg]) as needed, at an interval of 4 weeks up to Week 24.
Safety and tolerability assessments include regular monitoring and recording of all adverse events (AEs) and concomitant medications or significant non-drug therapies. Evaluations of routine blood chemistries, blood counts with white cell differential and urine analyses, physical examinations, electrocardiograms (ECGs), and monitoring of vital signs will be performed at regular intervals.

[5] = LCZ696 regimen vs olmesartan regimen, 52 weeks
[6] = Week 52 endpoint (LOCF), FAS, add-on amlodipine/HCTZ allowed
[7] = LCZ696 regimen vs olmesartan regimen, 12 weeks, P < 0.001

Compound: CCCCC(=O)N(Cc1ccc(-c2ccccc2-c2nn[n-]n2)cc1)C(C(=O)[O-])C(C)C.CCCCC(=O)N(Cc1ccc(-c2ccccc2-c2nn[n-]n2)cc1)C(C(=O)[O-])C(C)C.CCOC(=O)C(C)CC(Cc1ccc(-c2ccccc2)cc1)NC(=O)CCC(=O)[O-].CCOC(=O)C(C)CC(Cc1ccc(-c2ccccc2)cc1)NC(=O)CCC(=O)[O-].O.O.O.O.O.[Na+].[Na+].[Na+].[Na+].[Na+].[Na+] [LCZ696, trisodium [3-((1S,3R)-1-biphenyl-4-ylmethyl-3-ethoxycarbonyl-1-butylcarbamoyl) propionate-(S)-3′-methyl-2′-(pentanoyl{2″-(tetrazol-5-ylate)biphenyl-4′-ylmethyl}amino)butyrate]hemipentahydrate]
- lowering of CASP and CPP vs olmesartan 40 mg/day ([1]; LCZ696 400 mg/day, after 12 weeks of monotherapy): to a greater extent than olmesartan
- Between-treatment difference, mscDBP, 12 weeks ([1]; LCZ696 regimen vs olmesartan regimen, 12 weeks): −1.1 (0.90) mmHg
- Between-treatment difference, mscDBP, 52 weeks [1, 5]: −0.7 (0.86) mmHg
- LSM difference in change from baseline (SE), mean CPP, LCZ696 vs Olmesartan ([1]; Week 12 endpoint, FAS, ANCOVA, p=0.012): −2.45 mmHg and −2.45 (0.96) mmHg
- LSM change from baseline (SE) in mean CPP at Week 12 endpoint ([1]; Week 12 endpoint, FAS, monotherapy): −6.41 mmHg and −6.41 (0.69) mmHg
- LSM change from baseline (SE) in mean CASP at Week 12 endpoint ([1]; Week 12 endpoint, FAS, monotherapy, LCZ696 400 mg/day, olmesartan 40 mg/day): −12.57 mmHg and −12.57 (1.01) mmHg
- LSM change from baseline (SE) in mean CASP at Week 52 endpoint [1, 6]: −16.18 mmHg and −16.18 (0.96) mmHg
- LSM change from baseline (SE) in mean CPP at Week 52 endpoint [1, 6]: −7.16 mmHg and −7.16 (0.69) mmHg
- LSM difference in change from baseline (SE), mean CASP, LCZ696 vs Olmesartan ([1]; Week 52 endpoint (LOCF), FAS, p=0.271): −1.49 (1.35) mmHg
- LSM difference in change from baseline (SE), mean CPP, LCZ696 vs Olmesartan ([1]; Week 52 endpoint (LOCF), FAS, p=0.598): −0.51 (0.97) mmHg
- Change from baseline to 12 weeks, mscDBP ([1]; mean sitting central diastolic BP, 12 weeks): −6.1 mmHg
- Change from baseline to 52 weeks, mscDBP ([1]; mean sitting central diastolic BP, 52 weeks): −8.8 mmHg
- Change from baseline to 12 weeks, mscMAP ([1]; mean sitting central mean arterial pressure, 12 weeks, mean): −8.0 mmHg
- Change from baseline to 52 weeks, mscMAP ([1]; mean sitting central mean arterial pressure, 52 weeks, mean): −9.6 mmHg
- Between-treatment difference, msMAP, 12 weeks [2, 7]: −3.6 (0.95)* mmHg
- Between-treatment difference, msMAP, 52 weeks [2, 5]: −1.5 (0.89) mmHg
- Change from baseline to 12 weeks, msDBP ([2]; mean sitting diastolic BP, 12 weeks, mean): −5.3 mmHg
- Change from baseline to 52 weeks, msDBP ([2]; mean sitting diastolic BP, 52 weeks, mean): −8.1 mmHg
- Change from baseline to 12 weeks, msMAP ([2]; mean sitting mean arterial pressure, 12 weeks): −12.2 mmHg
- Change from baseline to 52 weeks, msMAP ([2]; mean sitting mean arterial pressure, 52 weeks): −13.9 mmHg
- Change from baseline to 12 weeks, msPP ([2]; mean sitting pulse pressure, 12 weeks, mean): −8.0 mmHg
- Change from baseline to 52 weeks, msPP ([2]; mean sitting pulse pressure, 52 weeks, mean): −9.1 mmHg
- Change from baseline to 12 weeks, msSBP ([2]; mean sitting systolic BP, 12 weeks, mean): −13.3 mmHg
- Change from baseline to 52 weeks, msSBP ([2]; mean sitting systolic BP, 52 weeks, mean): −17.2 mmHg
- Between-treatment difference, maDBP, 12 weeks [3, 7]: −2.0 (0.51)* mmHg
- Between-treatment difference, maPP, 12 weeks [3, 7]: −2.1 (0.49)* mmHg
- Between-treatment difference, maSBP, 12 weeks [3, 7]: −4.1 (0.87)* mmHg
- Between-treatment difference, macSBP, 12 weeks [3, 7]: −3.4 (0.84)* mmHg
- Between-treatment difference, maDBP, 52 weeks [3, 5]: −0.4 (0.48) mmHg
- Between-treatment difference, maPP, 52 weeks [3, 5]: 0.6 (0.50) mmHg
- Between-treatment difference, maSBP, 52 weeks [3, 5]: 0.2 (0.82) mmHg
- Between-treatment difference, macSBP, 52 weeks [3, 5]: 0.6 (0.79) mmHg
- 24-hour ambulatory SBP compared to olmesartan ([3]; after 12-week monotherapy): lowered 24-hour ambulatory SBP compared to olmesartan
- Change from baseline to 12 weeks, macDBP ([3]; mean ambulatory central diastolic BP, 12 weeks, mean): −7.5 mmHg
- Change from baseline to 52 weeks, macDBP ([3]; mean ambulatory central diastolic BP, 52 weeks, mean): −9.0 mmHg
- Change from baseline to 12 weeks, macMAP ([3]; mean ambulatory central mean arterial pressure, 12 weeks, mean): −9.0 mmHg
- Change from baseline to 52 weeks, macMAP ([3]; mean ambulatory central mean arterial pressure, 52 weeks, mean): −10.33 mmHg
- Change from baseline to 12 weeks, macPP ([3]; mean ambulatory central pulse pressure, 12 weeks, mean): −4.4 mmHg
- Change from baseline to 52 weeks, macPP ([3]; mean ambulatory central pulse pressure, 52 weeks, mean): −4.1 mmHg
- Change from baseline to 12 weeks, macSBP ([3]; mean ambulatory central systolic BP, 12 weeks): −12.1 mmHg
- Change from baseline to 52 weeks, macSBP ([3]; mean ambulatory central systolic BP, 52 weeks): −13.0 mmHg
- Change from baseline to 12 weeks, maDBP ([3]; mean ambulatory diastolic BP, 12 weeks): −7.4 mmHg
- Change from baseline to 52 weeks, maDBP ([3]; mean ambulatory diastolic BP, 52 weeks): −8.8 mmHg
- Change from baseline to 12 weeks, maMAP ([3]; mean ambulatory mean arterial pressure, 12 weeks, mean): −10.0 mmHg
- Change from baseline to 52 weeks, maMAP ([3]; mean ambulatory mean arterial pressure, 52 weeks, mean): −11.2 mmHg
- Change from baseline to 12 weeks, maPP ([3]; mean ambulatory pulse pressure, 12 weeks): −5.8 mmHg
- Change from baseline to 52 weeks, maPP ([3]; mean ambulatory pulse pressure, 52 weeks): −5.3 mmHg
- Change from baseline to 12 weeks, maSBP ([3]; mean ambulatory systolic BP, 12 weeks): −13.2 mmHg
- Change from baseline to 52 weeks, maSBP ([3]; mean ambulatory systolic BP, 52 weeks): −14.1 mmHg
- percentage of patients who discontinued the study [4]: 19.7%
- percentage of patients who discontinued the study due to an AE [4]: 6.6%
- percentage of patients with AEs [4]: 57.6%
- percentage of patients with SAEs [4]: 7.0%
- tolerability of the regimen [4]: well tolerated
